System: senescent cells
Experiment: Flow cytometry analysis for detection of senescent cells in cell culture
Assay type: cell-based
Conditions: HIC assay adapted to flow cytometry, FIG. 10
Protocol: In inventive example 7 the derivative LG13 was used to detect lipofuscin rich cells in cell aspirations or cell cultures by flow cytometry analysis.
• 1. Cells harvested from culture are fixed in EtOH 70% at 4° C. • 2. Centrifuge at 1200 rpm for 5 min at RT. • 3. Wash ×1 in 5 ml PBS at RT. • 4. Centrifuge at 1200 rpm for 5 min at RT. • 5. Incubate in 0.1% Triton X/PBS for 15 min at RT. • 6. Centrifuge at 1200 rpm for 5 min at RT. • 7. Wash ×1 EtOH 50% for 5 min at RT • 8. Centrifuge at 1200 rpm for 5 min at RT. • 9. Wash ×1 EtOH 70% for 5 min at RT. • 10. Centrifuge at 1200 rpm for 5 min at RT. • 11. Cover cell pellet with compound LG13 and incubate for 8 min at RT. • 12. Centrifuge at 1200 rpm for 5 min at RT. • 13. Wash with EtOH 50% and centrifuge at 1200 rpm for 5 min at RT, repeat ×3. • 14. Wash ×1 in PBS. • 15. Centrifuge at 1200 rpm for 5 min at RT. • 16. Incubate with the primary anti-biotin antibody diluted 1:400 in PBS ([Hyb-8] ab201341, Abcam) for 60 min at 37° C. • 17. Wash ×1 with PBS. • 18. Centrifuge at 1200 rpm for 5 min at RT. • 19. Incubate with secondary antibody, goat anti-mouse 568 Alexa Fluor conjugated, diluted 1:100 in PBS [Thermo Fisher Scientific (Cat no: A-11004)] for 20-30 min in dark and on ice. • 20. Wash ×1 with PBS. • 21. Centrifuge at 1200 rpm for 5 min at RT.

## CC1(COC(=O)CCCC[C@H]2SC[C@H]3NC(=O)N[C@H]32)Nc2cccc3c(/N=N/c4ccc(/N=N/c5ccccc5)c5ccccc45)ccc(c23)N1 (stereo partly drawn) [LG13, (2-methyl-6-((E)-(4-((E)-phenyldiazenyl)naphthalen-1-yl)diazenyl)-2,3-dihydro-1H-perimidin-2-yl)methyl 5-((3aR,4R,6aS)-2-oxohexahydro-1H-thieno[3,4-d]imidazol-4-yl)pentanoate]
  detection of senescent cells by flow cytometry: detects robustly senescent cells

— patent publication US11034839B2, “Compounds, linked with haptens, for the detection of senescent cells” (THE UNIVERSITY OF MANCHESTER, priority 2016, dated 2021)
